Values joined by “and” are separate entries in the source; they are usually repeats but may differ in a detail not shown here. Equal values may be shown once. “Also recorded” adds a separate entry of the source.
Experiments:
Type in all cases: in vivo
Ad5 McEwen = experiment: Ad5/NZW rabbit ocular model, Example 3 (Ad-R1)
Method: The purpose of this study is to determine the antiviral efficacy of a 100 mg/ml solution of human Intra Venous Immune Globulin (IG) in the Ad5/NZW rabbit ocular model.
Fifteen NZW female rabbits 2-3 lbs were received from Myrtle's Rabbitry, Thompson Station, Tenn. Fifteen rabbits were inoculated in both eyes following general anesthesia with ketamine & xylazine, topical anesthesia with proparacaine, and corneal scarification (12 cross-hatched strokes of a #25 needle) with 50 μl of 3.0×10^7 pfu/ml (1.5×10^6 pfu/eye or 1.5×10^8 vp/eye) of Ad5 McEwen (Stock P3, Feb. 25, 05, 5.3×10^8 pfu/ml). Eyes were closed and gently rubbed for 5 seconds to ensure contact of the virus on all ocular surfaces.
Eyes were cultured for virus after at least 3 hours (Day 0) after infection. Following topical anesthesia with proparacaine, a single cotton-tipped swab was placed into the lower fornix of each eye, rolled over the cornea into the upper fornix to recover adenovirus from the tear film and corneal and conjunctival surfaces. The swabs from each eye were placed individually into tubes containing 1 ml of outgrowth media and were frozen at −70° C. pending plaque assay. On Day 1, rabbits were divided into 3 treatment groups of 5 rabbits each. Two masked solutions were received. One solution contained 100 mg/ml of IG (Gammagard S/D) and one solution contained pharmaceutical grade saline for use as the negative control. The positive antiviral control, 0.5% cidofovir was not masked because of the differences in treatment regimen. The solutions were stored at 4° C. until and during use.
Drops were administered with at least a 1 hour interval between drops. All eyes from all groups were cultured for virus on days 1, 3, 4, 5, 7, 9, 11, and 14 at least one hour after the final doses of the treatments described above. At various times during the course of the experiment, Ad5 titers were determined on A549 cell monolayers using a standard plaque assay. The ocular cultures to be titered were thawed, diluted (1:10) and inoculated onto A549 monolayers. The virus was adsorbed for 3 hours. Following adsorption, 1 ml of media plus 0.5% methylcellulose was added to each well, and the plates were incubated at 37° C. in a 5% CO2-water vapor atmosphere. After 7 days incubation, the cells were stained with 0.5% gentian violet, and the number of plaques were counted under a dissecting microscope (25×). The viral titers were then calculated, and expressed as plaque-forming units per milliliter (pfu/ml).
Analysis of Results: Data were analyzed statistically using True Epistat and/or Minitab statistical software. Outcome measures included: Ad5-Positive Cultures per Total (Overall [Days 1-14]; Early Phase of Infection [Days 1-5]; Late Phase of Infection [Days 7-14]), Daily Viral Titers, Mean Viral Titer (Early Phase of Infection [Days 1-5]; Late Phase of Infection [Days 7-14]), and Duration of Shedding. Significance was established at the p≦0.05 confidence level.
Duration of viral shedding is shown in Table 8 and was statistically analyzed. The duration of viral shedding in IG treated animals was 5.4 days (standard deviation of 0.84 days). In the Cidofovir treated animals, the duration of viral shedding was 5.0 (SD=1.25 days) while it was longer in the normal saline treated group: 7.2 days (SD=1.14 days). The significant finding is represented graphically in FIG. 8. In this analysis, IG was similar to Cidofovir in reducing the duration of viral shedding.

Ad5 [1] = experiment: Ad5/NZW rabbit ocular model, combined analysis of Examples 3 and 5
Description: The following summarizes the in vivo studies provided in Examples 3 and 5. Data from the two studies were combined, analyzed by Minitab statistical software using Analysis of Variance (ANOVA), and X^2 analyses. Significance was established at the p<0.05 confidence.
The daily reduction in percent Ad5 positive cultures per total for all treatment groups is presented graphically in FIG. 4.
The mean combined Ad5 ocular titers represent a global measure of adenovirus replication during the early and late phases of infection. These were determined by calculating the mean and standard deviation of all ocular cultures from each treatment group during the early and late phases (n=80 for all groups).
The mean duration of shedding was estimated by determining the last day on which adenovirus positive cultures were obtained and calculating the mean and standard deviation.

Ad5 [2] = experiment: as above; conditions: n=20 eyes per group, FIG. 12
[3] = Days 1-5, Early Phase of Infection
[4] = Days 7-14, Late Phase of Infection

`Nc1ccn(C[C@@H](CO)OCP(=O)(O)O)c(=O)n1` [0.5% Cidofovir, Cidofovir] was tested, and the “Daily Ad5 ocular titer, Median” value (Ad5 McEwen; D0) was 2350 pfu/ml, the “Daily Ad5 ocular titer, TrMean” value (Ad5 McEwen; D0) was 2988 pfu/ml and the “Daily Ad5 ocular titer, Mean” value (Ad5 McEwen; D0, N 10 eyes) was 3214 pfu/ml. For the same compound, the “Ad5 ocular viral titer, individual eye” value (Ad5 McEwen; D 0, after infection, before treatment) was 2450 pfu/ml and 1950 pfu/ml and 4250 pfu/ml and 1100 pfu/ml and 2250 pfu/ml and 6650 pfu/ml and 7200 pfu/ml and 3100 pfu/ml and 2150 pfu/ml and 1040 pfu/ml, the “Ad5 ocular viral titer, individual eye” value (Ad5 McEwen; D 1) was 450 pfu/ml (2×) and 475 pfu/ml and 1000 pfu/ml and 5 pfu/ml and 550 pfu/ml (2×) and 1550 pfu/ml and 1800 pfu/ml and 330 pfu/ml and the “Daily Ad5 ocular titer, Mean” value (Ad5 McEwen; D 1) was 716 pfu/ml. For the same compound, the “Daily Ad5 ocular titer, Median” value (Ad5 McEwen; D 1) was 512 pfu/ml, the “Daily Ad5 ocular titer, TrMean” value (Ad5 McEwen; D 1) was 669 pfu/ml and the “Ad5 ocular viral titer, individual eye” value (Ad5 McEwen; D 3) was 4250 pfu/ml and 3800 pfu/ml and 2700 pfu/ml and 130 pfu/ml and 9350 pfu/ml and 8200 pfu/ml and 9300 pfu/ml and 100 pfu/ml and 350 pfu/ml and 210 pfu/ml. For the same compound, the “Daily Ad5 ocular titer, Mean” value (Ad5 McEwen; D 3) was 3839 pfu/ml, the “Daily Ad5 ocular titer, Median” value (Ad5 McEwen; D 3) was 3250 pfu/ml and the “Daily Ad5 ocular titer, TrMean” value (Ad5 McEwen; D 3) was 3617 pfu/ml. For the same compound, the “Ad5 ocular viral titer, individual eye” value (Ad5 McEwen; D 4) was 650 pfu/ml and 400 pfu/ml and 6700 pfu/ml and 1150 pfu/ml and 4700 pfu/ml and 2350 pfu/ml and 1800 pfu/ml and 25 pfu/ml and 0 pfu/ml and 80 pfu/ml, the “Daily Ad5 ocular titer, Mean” value (Ad5 McEwen; D 4) was 1785 pfu/ml and the “Daily Ad5 ocular titer, Median” value (Ad5 McEwen; D 4) was 900 pfu/ml. The “Daily Ad5 ocular titer, TrMean” value (Ad5 McEwen; D 4) was 1394 pfu/ml, the “Ad5 ocular viral titer, individual eye” value (Ad5 McEwen; D 5) was 550 pfu/ml and 10 pfu/ml and 1550 pfu/ml and 0 pfu/ml (3×) and 400 pfu/ml and 1400 pfu/ml and 1100 pfu/ml and 5 pfu/ml and the “Daily Ad5 ocular titer, Mean” value (Ad5 McEwen; D 5) was 501 pfu/ml. The “Daily Ad5 ocular titer, Median” value (Ad5 McEwen; D 5) was 205 pfu/ml, the “Daily Ad5 ocular titer, TrMean” value (Ad5 McEwen; D 5) was 433 pfu/ml and the “Ad5 ocular viral titer, individual eye” value (Ad5 McEwen; D 7) was 0 pfu/ml (8×) and 5 pfu/ml and 15 pfu/ml. For the same compound, the “Daily Ad5 ocular titer, Mean” value (Ad5 McEwen; D 7) was 2.00 pfu/ml, the “Daily Ad5 ocular titer, Median” value (Ad5 McEwen; D 7) was 0.00 pfu/ml and the “Daily Ad5 ocular titer, TrMean” value (Ad5 McEwen; D 7) was 0.62 pfu/ml. For the same compound, the “Ad5 ocular viral titer, individual eye” value (Ad5 McEwen; D 9) was 0 pfu/ml, the “Daily Ad5 ocular titer, Mean” value (Ad5 McEwen; D 9) was 0.00000 pfu/ml and the “Daily Ad5 ocular titer, Median” value (Ad5 McEwen; D 9) was 0.00000 pfu/ml. The “Daily Ad5 ocular titer, TrMean” value (Ad5 McEwen; D 9) was 0.00000 pfu/ml, the “Ad5 ocular viral titer, individual eye” value (Ad5 McEwen; D 11) was 0 pfu/ml and the “Daily Ad5 ocular titer, Mean” value (Ad5 McEwen; D 11) was 0.00000 pfu/ml. For the same compound, the “Daily Ad5 ocular titer, Median” value (Ad5 McEwen; D 11) was 0.00000 pfu/ml, the “Daily Ad5 ocular titer, TrMean” value (Ad5 McEwen; D 11) was 0.00000 pfu/ml and the “Ad5 ocular viral titer, individual eye” value (Ad5 McEwen; D 14) was 0 pfu/ml. The “Daily Ad5 ocular titer, Mean” value (Ad5 McEwen; D 14) was 0.00000 pfu/ml, the “Daily Ad5 ocular titer, Median” value (Ad5 McEwen; D 14) was 0.00000 pfu/ml and the “Daily Ad5 ocular titer, TrMean” value (Ad5 McEwen; D 14) was 0.00000 pfu/ml. For the same compound, the “Positive Cultures per Total” value (Ad5 McEwen; Day 0, before treatment) was 10/10, the “Positive Cultures per Total, percent” value (Ad5 McEwen; Day 0, before treatment) was 100% and the “Positive Cultures per Total” value (Ad5 McEwen; Day 1) was 10/10. For the same compound, the “Positive Cultures per Total, percent” value (Ad5 McEwen; Day 1) was 100%, the “Positive Cultures per Total” value (Ad5 McEwen; Day 3) was 10/10 and the “Positive Cultures per Total, percent” value (Ad5 McEwen; Day 3) was 100%. For the same compound, the “Positive Cultures per Total” value (Ad5 McEwen; Day 4) was 9/10, the “Positive Cultures per Total, percent” value (Ad5 McEwen; Day 4) was 90% and the “Positive Cultures per Total” value (Ad5 McEwen; Day 5) was 7/10. For the same compound, the “Positive Cultures per Total, percent” value (Ad5 McEwen; Day 5) was 70%, the “Positive Cultures per Total” value (Ad5 McEwen; Day 7) was 2/10 and the “Positive Cultures per Total, percent” value (Ad5 McEwen; Day 7) was 20%. The “Positive Cultures per Total” value (Ad5 McEwen; Day 9) was 0/10, the “Positive Cultures per Total, percent” value (Ad5 McEwen; Day 9) was 0% and the “Positive Cultures per Total” value (Ad5 McEwen; Day 11) was 0/10. The “Positive Cultures per Total, percent” value (Ad5 McEwen; Day 11) was 0%, the “Positive Cultures per Total” value (Ad5 McEwen; Day 14) was 0/10 and the “Positive Cultures per Total, percent” value (Ad5 McEwen; Day 14) was 0%. The “Positive Cultures per Total, Total” value (Ad5 McEwen; [3]) was 36/40, the “Positive Cultures per Total, Total (%)” value (Ad5 McEwen; [3]) was 90% and the “Positive Cultures per Total, Total” value (Ad5 McEwen; Days 1-14) was 38/80. The “Positive Cultures per Total, Total (%)” value (Ad5 McEwen; Days 1-14) was 47.5%, the “Positive Cultures per Total, Total (%)” value (Ad5 McEwen; Days 1-14, listed as Cidofovir) was 47.5% and the “Positive Cultures per Total, Total” value (Ad5 McEwen; [4]) was 2/40. The “Positive Cultures per Total, Total (%)” value (Ad5 McEwen; [4]) was 5%, the “Positive Cultures per Total, Total (%)” value (Ad5 McEwen; Days 7-14, Late Phase of Infection, listed as Cidofovir) was 5% and the “Mean Combined Ocular Titers Days 7-14, comparison” value (Ad5 McEwen; Late Phase) was “significantly lower Mean Combined Ocular Titers Days 7-14 compared with NPR”. The “Positive Cultures per Total Days 7-14, comparison” value (Ad5 McEwen; Late Phase) was “significantly fewer Positive Cultures per Total Days 7-14 compared with NPR”, the “Antiviral efficacy, conclusion” value (Ad5 McEwen; compared to Saline control) was “demonstrated its proven antiviral efficacy” and the “Mean Daily Ocular Titers, statistical comparison” value (Ad5 McEwen; days as stated) was “significantly lower titers on Days 1 and 7 compared with NPR”. The “Duration of Shedding, individual eye” value (Ad5 McEwen; final day with positive Ad5 culture, listed as CDV) was 5 days (5×) and 4 days (2×) and 7 days (2×) and 3 days, the “Duration of viral shedding, group mean” value (Ad5 McEwen; mean of 10 eyes) was 5.0 days and the “Mean Duration of Shedding, comparison” value (Ad5 McEwen; rabbit, in vivo) was “significantly shorter durations of shedding compared with the NPR”. For the same compound, the “Adenoviral Positive Culture/total, Early Phase” value (Ad5 [1]; Days 1-5) was 72/80, the “Adenoviral Positive Culture/total, Early Phase, percent” value (Ad5 [1]; Days 1-5) was 90.0% and the “Mean Combined Ad5 titer, Early Phase, Mean ± Sd” value (Ad5 [1]; Days 1-5, n = 80) was 1.4 ± 2.1 × 10^3 pfu/ml. The “Adenoviral Positive Culture/total, Overall” value (Ad5 [1]; Days 1-14) was 78/160, the “Adenoviral Positive Culture/total, Overall, percent” value (Ad5 [1]; Days 1-14) was 48.75% and the “Adenoviral Positive Culture/total, Late Phase” value (Ad5 [1]; Days 7-14) was 6/80. For the same compound, the “Adenoviral Positive Culture/total, Late Phase, percent” value (Ad5 [1]; Days 7-14) was 7.5%, the “Mean Combined Ad5 titer, Late Phase, Mean ± Sd” value (Ad5 [1]; Days 7-14, n = 80) was 0.8 ± 0.4 × 10^0 pfu/ml and the “Duration of Ad5 Shedding, Mean ± Sd” value (Ad5 [1]; n = 20) was 5.3 ± 1.3 days. For the same compound, the “Antiviral activity, overall comparison” value (Ad5 [1]; rabbit, in vivo) was “equivalent antiviral inhibitory activity”, the “Duration of shedding, comparison” value (Ad5 [1]; rabbit, in vivo) was “significantly decreased the duration of shedding compared with the saline control; also recorded: significantly decreased the Mean Duration of shedding compared with IG” and the “Daily Ad5 positive cultures per total, comparison (words)” value (Ad5 [2]) was “significantly fewer Ad5 positive cultures per total compared with the Saline control on Days 7 and 9”. For the same compound, the “Daily Ad5 positive cultures per total, comparison (words)” value (Ad5 [2]; listed as cidofovir) was “significant decreases in the number of Ad5 positive cultures per total on Days 7 and 9 compared with the saline treated eyes”.

Source: US20080031903A1, “METHOD OF TREATING OCULAR INFECTIONS” (priority 2006, published 2008)
